Each molecule was assayed on Bmi-1 protein (assay: Sandwich ELISA Assay (Bmi-1 protein level in HT-1080 cells after compound treatment)). Conditions: Table 1, Bmi-1 sandwich ELISA, read-out: ELISA EC50 value for Bmi-1 protein.
Format: cell-based
Procedure, shortened: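 HT-1080 cells exposed to compounds for 40–48 h at 37 °C (0.5% DMSO final), then lysed. Bmi-1 in lysates measured by sandwich ELISA (mouse monoclonal capture, rabbit anti-Bmi-1 detection, HRP anti-rabbit, TMB), read at OD450 with OD570 reference against a recombinant Bmi-1 standard curve (0–8000 pg/mL).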

EC50	SMILES
10 to 100 nM	Cc1nc2ncccc2n1-c1cncc(Nc2ccc(OC(F)F)c(F)c2)n1 [compound 325]
1 to 10 nM	CCc1nc2ncc(Cl)cc2n1-c1cncc(Nc2ccc(C(F)(F)F)cc2)n1 [compound 327, 6-(6-chloro-2-ethyl-1H-imidazo[4,5-b]pyridin-1-yl)-N-[4-(trifluoromethyl)phenyl]pyrazin-2-amine]
1 to 10 nM	CCc1nn(C)c(CC)c1-c1cncc(Nc2ccc(OC(F)F)cc2)n1 [compound 333, 6-(3,5-diethyl-1-methyl-1H-pyrazol-4-yl)-N-[4-(difluoromethoxy)phenyl]pyrazin-2-amine]
10 to 100 nM	Cc1nc(C)n(-c2cncc(Nc3ccc(C(F)(F)F)cc3)n2)c1C [compound 342, N-[4-(trifluoromethyl)phenyl]-6-(2,4,5-trimethyl-1H-imidazol-1-yl)pyrazin-2-amine]
1 to 10 nM	Cc1ccc2nc(C)n(-c3cncc(Nc4ccc(C(F)(F)F)cc4)n3)c2c1 [compound 343, 6-(2,6-dimethyl-1H-benzimidazol-1-yl)-N-[4-(trifluoromethyl)phenyl]pyrazin-2-amine]
10 to 100 nM	Cc1nc2ccc(Cl)cc2n1-c1cc(C#N)cc(Nc2ccc(C(F)(F)F)cc2)n1 [compound 345, 2-(6-chloro-2-methyl-1H-benzimidazol-1-yl)-6-{[4-(trifluoromethyl)phenyl]amino}pyridine-4-carbonitrile]
100 to 3000 nM	Cc1nc2cc(OC(F)(F)F)ccc2n1-c1cncc(Nc2ccc(C(F)(F)F)cc2)n1 [compound 356, 6-[2-methyl-5-(trifluoromethoxy)-1H-benzimidazol-1-yl]-N-[4-(trifluoromethyl)phenyl]pyrazin-2-amine]
100 to 3000 nM	Cc1nc2ccc(OC(F)(F)F)cc2n1-c1cncc(Nc2ccc(C(F)(F)F)cc2)n1 [compound 357, 6-[2-methyl-6-(trifluoromethoxy)-1H-benzimidazol-1-yl]-N-[4-(trifluoromethyl)phenyl]pyrazin-2-amine]
1 to 10 nM	Cc1nc2ncc(Cl)cc2n1-c1cncc(Nc2ccc(C(F)(F)F)cc2)n1 [compound 361, 6-(6-chloro-2-methyl-1H-imidazo[4,5-b]pyridin-1-yl)-N-[4-(trifluoromethyl)phenyl]pyrazin-2-amine]
10 to 100 nM	Nc1cc(Nc2ccc(C(F)(F)F)c(F)c2)nc(-c2c(C3CC3)nc3ccc(F)cn23)c1 [compound 364, 6-(2-cyclopropyl-6-fluoroimidazo[1,2-a]pyridin-3-yl)-N^2-[3-fluoro-4-(trifluoromethyl)phenyl]pyridine-2,4-diamine]
100 to 3000 nM	CCc1nc2cnccc2n1-c1cncc(Nc2ccc(C(F)(F)F)cc2)n1 [compound 370, 6-(2-ethyl-1H-imidazo[4,5-c]pyridin-1-yl)-N-[4-(trifluoromethyl)phenyl]pyrazin-2-amine]
10 to 100 nM	Cc1nc2ncc(F)cc2n1-c1cncc(Nc2ccc(C(F)(F)F)c(F)c2)n1 [compound 373, 6-(6-fluoro-2-methyl-1H-imidazo[4,5-b]pyridin-1-yl)-N-[3-fluoro-4-(trifluoromethyl)phenyl]pyrazin-2-amine]
10 to 100 nM	COc1ccc2nc(C)c(-c3cncc(Nc4ccc(OC(F)(F)F)cc4)n3)n2c1 [compound 377, 6-(6-methoxy-2-methylimidazo[1,2-a]pyridin-3-yl)-N-[4-(trifluoromethoxy)phenyl]pyrazin-2-amine]

Second part, the molecule before the results:

SMILES	EC50
Fc1cc(Nc2cncc(-c3c(C(F)(F)F)nc4ccccn34)n2)ccc1OC(F)F [compound 323, N-[4-(difluoromethoxy)-3-fluorophenyl]-6-[2(trifluoromethyl)imidazo[1,2-a]pyridin-3-yl]pyrazin-2-amine]	1 to 10 nM
Cc1nc2ccccc2n1-c1cncc(Nc2ccc(OC(F)F)c(F)c2)n1 [compound 324, N-[4-(difluoromethoxy)-3-fluorophenyl]-6-(2-methyl-1H-benzimidazol-1-yl)pyrazin-2-amine]	10 to 100 nM
Cc1nc2cc(F)c(F)cc2n1-c1cc(C#N)cc(Nc2ccc(OC(F)F)c(F)c2)n1 [compound 326, 2-{[4-(difluoromethoxy)-3-fluorophenyl]amino}-6-(5,6-difluoro-2-methyl-1H-benzimidazol-1-yl)pyridine-4-carbonitrile]	10 to 100 nM
OCc1nc2ccc(F)cn2c1-c1cncc(Nc2ccc(C(F)(F)F)cc2)n1 [compound 328, [6-fluoro-3-(6-{[4-(trifluoromethyl)phenyl]amino}pyrazin-2-yl)imidazo[1,2-a]pyridin-2-yl]methanol]	1 to 10 nM
CCn1nc(C(F)(F)F)c(-c2cncc(Nc3ccc(OC(F)F)cc3)n2)c1C [compound 330, N-[4-(difluoromethoxy)phenyl]-6-[1-ethyl-5-methyl-3-(trifluoromethyl)-1H-pyrazol-4-yl]pyrazin-2-amine]	10 to 100 nM
Cc1nc2c(F)cccc2n1-c1cncc(Nc2ccc(C(F)(F)F)cc2)n1 [compound 339, 6-(4-fluoro-2-methyl-1H-benzimidazol-1-yl)-N-[4-(trifluoromethyl)phenyl]pyrazin-2-amine]	10 to 100 nM
Cc1nc2ccc(C(F)(F)F)cc2n1-c1cncc(Nc2ccc(C(F)(F)F)cc2)n1 [compound 340, 6-[2-methyl-6-(trifluoromethyl)-1H-benzimidazol-1-yl]-N-[4-(trifluoromethyl)phenyl]pyrazin-2-amine]	100 to 3000 nM
Cc1nc(Br)c(C)n1-c1cncc(Nc2ccc(C(F)(F)F)cc2)n1 [compound 341, 6-(4-bromo-2,5-dimethyl-1H-imidazol-1-yl)-N-[4-(trifluoromethyl)phenyl]pyrazin-2-amine]	100 to 3000 nM
Cc1nc2cc(Cl)ccc2n1-c1cc(C#N)cc(Nc2ccc(C(F)(F)F)cc2)n1 [compound 344, 2-(5-chloro-2-methyl-1H-benzimidazol-1-yl)-6-{[4-(trifluoromethyl)phenyl]amino}pyridine-4-carbonitrile]	100 to 3000 nM
N#Cc1cc(Nc2ccc(OC(F)F)cc2)nc(-c2c(C3CC3)nc3ccc(F)cn23)c1 [compound 348, 2-(2-cyclopropyl-6-fluoroimidazo[1,2-a]pyridin-3-yl)-6-{[4-(difluoromethoxy)phenyl]amino}pyridine-4-carbonitrile]	1 to 10 nM
COc1c(F)cc(Nc2cc(C#N)cc(-c3c(C4CC4)nc4ccc(F)cn34)n2)cc1F [compound 351, 2-(2-cyclopropyl-6-fluoroimidazo[1,2-a]pyridin-3-yl)-6-[(3,5-difluoro-4-methoxyphenyl)amino}pyridine-4-carbonitrile]	10 to 100 nM
Cc1cc(-c2cncc(Nc3ccc(C(F)(F)F)cc3)n2)ccn1 [compound 353, 6-(2-methylpyridin-4-yl)-N-[4-(trifluoromethyl)phenyl]pyrazin-2-amine]	100 to 3000 nM
FC(F)(F)c1ccc(Nc2cncc(-c3ccnc(-c4ccnc(Cl)c4)c3)n2)cc1 [compound 354, 6-(2′-chloro-2,4′-bipyridin-4-yl)-N-[4-(trifluoromethyl)phenyl]pyrazin-2-amine]	100 to 3000 nM
Cc1nc2cccc(F)c2n1-c1cncc(Nc2ccc(C(F)(F)F)cc2)n1 [compound 358, 6-(7-fluoro-2-methyl-1H-benzimidazol-1-yl)-N-[4-(trifluoromethyl)phenyl]pyrazin-2-amine]	10 to 100 nM
Cc1nc2cc(F)c(F)cc2n1-c1cc(C#N)cc(Nc2ccc(C(F)(F)F)c(F)c2)n1 [compound 359, 2-(5,6-difluoro-2-methyl-1H-benzimidazol-1-yl)-6-{[3-fluoro-4-(trifluoromethyl)phenyl]amino}pyridine-4-carbonitrile]	100 to 3000 nM
Cc1nc2ncccc2n1-c1cncc(NC2=CCC(F)(C(F)(F)F)C=C2)n1 (centres unmarked) [compound 360, N-[4-fluoro-4-(trifluoromethyl)phenyl]-6-(2-methyl-1H-imidazo[4,5-b]pyridin-1-yl)pyrazin-2-amine]	10 to 100 nM
Cc1nc2ncncc2n1-c1cncc(Nc2ccc(C(F)(F)F)cc2)n1 [compound 371, 6-(8-methyl-7H-purin-7-yl)-N-[4-(trifluoromethyl)phenyl]pyrazin-2-amine]	100 to 3000 nM
CCc1nc2ncc(F)cc2n1-c1cncc(Nc2ccc(C(F)(F)F)c(F)c2)n1 [compound 374, 6-(2-ethyl-6-fluoro-1H-imidazo[4,5-b]pyridin-1-yl)-N-[3-fluoro-4-(trifluoromethyl)phenyl]pyrazin-2-amine]	10 to 100 nM
C=CCN1CCc2c(nc(C)n2-c2cncc(Nc3ccc(C(F)(F)F)cc3)n2)C1 [compound 375]	100 to 3000 nM
COc1ccc2nc(C)c(-c3cncc(Nc4ccc(C(F)(F)F)cc4)n3)n2c1 [compound 376, 6-(6-methoxy-2-methylimidazo[1,2-a]pyridin-3-yl)-N-[4-(trifluoromethyl)phenyl]pyrazin-2-amine]	10 to 100 nM
Cc1nc2ccc(O)cn2c1-c1cncc(Nc2ccc(C(F)(F)F)cc2)n1 [compound 378, 2-methyl-3-(6-{[4-(trifluoromethyl)phenyl]amino}pyrazin-2-yl)imidazo[1,2-a]pyridin-6-ol]	10 to 100 nM
COc1ccc2nc(C)c(-c3cc(C#N)cc(Nc4ccc(C(F)(F)F)cc4)n3)n2c1 [compound 379, 2-(6-methoxy-2-methylimidazo[1,2-a]pyridin-3-yl)-6-{[4-(trifluoromethyl)phenyl]amino}pyridine-4-carbonitrile]	10 to 100 nM
COc1ccc2nc(C)c(-c3cc(C#N)cc(Nc4ccc(OC(F)(F)F)cc4)n3)n2c1 [compound 380, 2-(6-methoxy-2-methylimidazo[1,2-a]pyridin-3-yl)-6-{[4-(trifluoromethoxy)phenyl]amino}pyridine-4-carbonitrile]	10 to 100 nM
Cc1nc2ccc(O)cn2c1-c1cc(C#N)cc(Nc2ccc(C(F)(F)F)cc2)n1 [compound 381, 2-(6-hydroxy-2-methylimidazo[1,2-a]pyridin-3-yl)-6-{[4-(trifluoromethyl)phenyl]amino}pyridine-4-carbonitrile]	10 to 100 nM
N#Cc1cc(Nc2ccc(C(F)(F)F)cc2)nc(-c2c(CO)nc3ccc(F)cn23)c1 [compound 383, 2-[6-fluoro-2-(hydroxymethyl)imidazo[1,2-a]pyridin-3-yl]-6-{[4-(trifluoromethyl)phenyl]amino}pyridine-4-carbonitrile]	10 to 100 nM

— patent publication US10584115B2, “Substituted pyridine and pyrazine BMI-1 inhibitors” (PTC Therapeutics, Inc., priority 2013, dated 2020)
